Results on three molecules are retold here after patent US11969499B2, “Hydrogel delivery of sting immunotherapy for treatment cancer” (WILLIAM MARSH RICE UNIVERSITY, priority 2017, dated 2024).

Entries after “also recorded” stand apart in the source; their conditions may differ. Read-outs that look alike come from different tables or passages of the source.

Data set [1] has as its system non-T cell-inflamed head and neck tumors. The following applies: in vivo; cited from earlier work.
The test system of a further data set is MOC1 tumors. The following applies: multiple intratumoral injections of CDN alone, cited from earlier work.
The subject of the next data set is MOC2-E6E7 cells. Put plainly: In vitro live/dead cell viability in unloaded and CDN-loaded MDP hydrogel. The following applies: for percent cell viability per mm3 of hydrogel vs no CDN / percent cell viability per mm3 of hydrogel: Day 7. The data set is classed as cell-based. As for the experimental part:
Preparation of cell—laden hydrogel for in vitro viability. MDP gel formulations with MOC2-E6E7 cells were prepared by diluting a cell suspension of 2,000,000 cells/mL in 2×HBSS with an equal volume of 4×CDN. The resulting suspension was then added to an equal volume of sterile 2 wt. % peptide in 298 mM sucrose and mixed to produce final samples of approximately 35,000 cells per 70 μL of 1 wt. %, 149 mM sucrose gel. Gels were then transferred into 0.4 cm 2 wells of Lab-Tek 16 well glass chamber slides (Thermo Fischer, Rochester, NY), pipetted to produce 70 μL pucks with flat profiles. Samples were allowed to shear recover for 5-10 mM before adding 200 μL cell media on top of each gel. The cell media was changed every 2 days, taking care to not dislodge the hydrogel material.
Cell viability was determined at each desired time point by performing live/dead assays as described below. Live/dead staining solution was prepared in DPBS with 2 μM Calcein AM for live cells (Life Technologies), 4 μM Ethidium homodimer for dead cells (Life Technologies), and 5 μg/mL Hoechst 33342 for nuclei (MP Biomedicals, Solon, OH). […] Cell media was removed and the gels were washed with PBS. Samples were then stained with 100 μL of prepared solution by incubating at RT for 15-30 mM. Following staining, gels were placed in PBS for immediate analysis by confocal microscopy. Gels were analyzed by z-stack imaging (100 μm) using a Nikon A1 Confocal Microscope with 20× air and 40× water objectives (405 nm blue channel laser, 488 nm green channel laser, 561 nm red channel laser). Image processing was done using NIS Elements, and live/dead cell counting was performed using the cell identification tool in Imaris 3D/4D Image Processing software, manually verified with nuclear counts when resolution allowed.

Another data set has as its system MOC2 tumors. The following applies: multiple CDN injections; cited from earlier work.
Another data set concerns MOC2-E6E7 tumors. Put plainly: Tumor growth and survival study (Examples 3-4). It is filed as in vivo, C57BL/6 mice. As for the experimental part: Tumor growth and survival study. For tumor experiments, 6-8 week old wild-type C57BL/6 female mice were maintained in a pathogen-free environment for the study. All protocols were in accordance with the guidelines for humane treatment of laboratory animals by the National Institutes of Health, the Animal Welfare Committee and the Center for Laboratory Animal Medicine and Care (CLAMC) at the University of Texas Health Science Center at Houston. Mice were injected with MOC2-E6E7 tumor cells on day 0 into the maxillary oral vestibule (30,000 cells in 30 μL volume), followed by controls or gel injections loaded with or without CDN on day 3 in the same oral cavity location (20 lag CDN per 30 μL injection). Tumor growth was measured using calipers and body weight was taken in all subjects two to three times per week. Photographs were also obtained. Kaplan-Meier survival and tumor growth curve analyses were performed from data obtained. Mice that maintained tumor clearance for 100 days were re-challenged with MOC2-E6E7 tumor cells again at day 105 and monitored similarly. All endpoints in tumor growth curve and survival data are a result of euthanasia due to excessive tumor burden, defined as tumor reaching 12 mm, tumor ulceration, or a weight loss of greater than 20%. The inventors observed no signs of unexpected disease or discomfort in the mice over the course of the experiments.
Statistical methods. Statistical analyses for Kaplan-Meier survival curves were performed using the log-rank/Mantel-Cox test with GraphPad Prism (GraphPad, San Diego, CA). For tumor growth curves, the Wilcoxon rank sum test was used to compare tumor size between STINGel and other groups. No adjustment for multiple testing was made because the study is novel and exploratory. All p values are two-sided and p values less than 0.05 were considered as significant. All statistical analyses were performed using the SAS software (version 9.4, the SAS Institute, Cary, NC).

The subject of a further data set is MOC-2-E6E7 tumors. The data set can be described thus: MOC-2-E6E7 orthotopic murine model of HNSCC, survival (Example 2, FIG. 2E). Also on record: species or system C57BL/6 mice. The following applies: mouse, in vivo. As for the experimental part: MOC-2-E6E7 Orthotopic murine model of HNSCC. 6 week-old male and female C57BL/6 mice will be inoculated in the left maxillary vestibule with MOC-2-E6E7 cells (30,000 cells in 30 μl volume). Animals will be monitored using a body condition scoring system to ensure they maintain a healthy weight and show no obvious signs of distress. At Day 14 post-tumor inoculation, STINGel (20 jug CDN in 30 μl of MDP hydrogel) or controls (as above) are injected into the oral tumor site. Animal studies will be done in triplicate, independent experiments for significance. Between-group differences in flow cytometric data will be statistically evaluated with one-way ANOVA and post-hoc analysis using Tukey's method. Differences between groups will be considered significant if p<0.05. In efficacy studies, Kaplan-Meier survival curves will be compared using the log-rank/Mantel-Cox test and tumor growth curves will be analyzed using the Koziol method (Koziol et al., 1981; 1982).

Data set [2] is described as follows: CDN drug release kinetics from hydrogels (UV absorbance at 259 nm). The data set is classed as physicochemical. The following applies: for CDN release compared to collagen (FIG. 5B): 30 μL gels, 910 μM CDN, under 200 μL HBSS, 24 h; for release profile of gels (FIG. 3A): CDN release, preliminary data. As for the experimental part: CDN release kinetics. 30 μL CDN-loaded gel aliquots are deposited into 96 well plates with 200 μL of buffer added to the top of the gels at time point t=0. For all kinetics experiments, a Thermo Scientific Nanodrop 2000C Spectrophotometer is used to measure UV absorbance at 259 nm, the characteristic wavelength of maximum absorbance for the adenine nucleobases present in the CDN. See FIG. 1A for an example of preliminary release kinetics data.
CDN drug release kinetics. To study the kinetics of CDN release from STINGel vs. collagen gel, 30 μL CDN-loaded gel aliquots were deposited into Falcon® 96 well flat bottom polystyrene plates (Becton Dickinson Labware, Franklin Lakes, NJ). For each experiment, cylindrical pucks of the 30 μL gel aliquots were created in each well, allowing the pipetted gels to shear recover for at least 5 mM before adding 200 μL of buffer (1×HBSS for STINGel, lx DPBS for collagen, according to gelation requirements) to the top of the gels at what was defined as t=0 for the start of kinetics experiments. The buffer height was approximately 2.5 mm, the gel thickness approximately 0.5 mm, and the gel's solvent exposed surface area approximately 12.6 mm^2.
A Thermo Scientific Nanodrop 2000C Spectrophotometer was used to measure UV absorbance at 259 nm, the characteristic wavelength of maximum absorbance for the CDN's adenine nucleobases. An extinction coefficient of 24,000 M^−1 cm^−1 at 259 nm was used. Absorbance measurements were taken by removal of 1 μL aliquots from the surface of the buffers, measuring the increase in absorbance over time. Release of CDN was measured over the course of the first 24 hours and converted to total percent released, with additional measurements also made at 48 and 72 hours to confirm that the samples had reached equilibrium.

As to `Nc1ncnc2c1ncn2[C@@H]1O[C@@H]2COP(O)(=S)O[C@@H]3C(O)[C@@H](COP(O)(=S)O[C@H]2[C@H]1O)O[C@H]3n1cnc2c(N)ncnc21` (stereo partly drawn) [CDN, dithio-(RP,RP)-[cyclic[A(2′,5′)pA(3′,5′)p]]], the efficacy entry in data set [1] was “completely ineffective”. Besides, the “efficacy / tumor rejection” value in the data set on MOC1 tumors is recorded as “only to a subset of MOC1 tumor rejection”; in the data set with MOC1 tumors (listed as CDN alone), “minimal efficacy”. Besides, the “percent cell viability per mm3 of hydrogel vs no CDN” value with MOC2-E6E7 cells (5 μM CDN), in the data set with MOC2-E6E7 cells (57 μM CDN) and in the data set with MOC2-E6E7 cells (114 μM CDN) was “equivalent” each time. For the same molecule, the “percent cell viability per mm3 of hydrogel” value in the data set on MOC2-E6E7 cells (228 μM CDN) was “reduced cell viability”; in the data set on MOC2-E6E7 cells (455 μM CDN), “no cell viability”; in the data set with MOC2-E6E7 cells (910 μM CDN), “no cell viability”. The “max tolerable dose cells can experience in their local environment” value in the data set on MOC2-E6E7 cells (without the massive cell death observed at 455 μM and above) is 228 µM. Moreover, the tumor rejection result in the data set with MOC2 tumors is given as “unsuccessful MOC2 tumor rejection”. Besides, the “mice surviving until the endpoint of the study” value in the data set with MOC2-E6E7 tumors (140 days post-tumor cell inoculation, single injection day 3, 20 μg CDN in 30 μL, n=10) was 10%. In the data set with MOC2-E6E7 tumors (single injection day 3 post inoculation), the “effect on tumor growth” value is on record as “ineffective in preventing tumor growth”. Also, the “mortality before day 60” value in the data set with MOC-2-E6E7 tumors stood at 100%.

Regarding “R2(SL)6R2 (SEQ ID NO: 4) (RRSLSLSLSLSLSLRR) [additional multidomain peptide hydrogel with arginine termini]”, in data set [2], the “CDN release compared to collagen (FIG. 5B)” value was “better (slower) release compared to collagen; also recorded: the best of the group” and the “release profile of gels (FIG. 3A)” value was “slowest, most prolonged release”.

“E2(SL)6E2 (SEQ ID NO: 3) (EESLSLSLSLSLSLEE) [additional multidomain peptide hydrogel with glutamate termini]”: in data set [2], the “CDN release compared to collagen (FIG. 5B)” value was “better (slower) release compared to collagen” and the “release profile of gels (FIG. 3A)” value is “intermediate release rates”.
